Consider ten molecules from patent US9932311B2, “Antidiabetic tricyclic compounds” (Merck Sharp & Dohme Corp., priority 2013, dated 2018).

Usually EC50 stands for the concentration that produces a half-maximal response.

What all share (type): cell-based
Experiment [1] concerns the target T1, Human GPR40 (Homo sapiens, UniProt O14842). In words: Inositol Phosphate Turnover (IP1) Assay 1. As to conditions: HEK cells stably expressing human GPR40, 96-well, 3H-inositol labeling, SPA beads. Details: expressed in transfected cells; host or cells: HEK cells stably expressing the aequorin reporter. The method, then: (§1) Human and mouse GPR40 stable cell-lines were generated in CHO cells stably expressing NFAT BLA (Beta-lactamase). A human GPR40 stable cell-line was generated in HEK cells stably expressing the aequorin expressing reporter. The expression plasmids were transfected using lipofectamine (Life Technologies) following manufacturer's instructions. Stable cell-lines were generated following drug selection.
The assay was performed in 96-well format. HEK cells stably expressing human GPR40 were plated to be 60-80% confluent within 72 h. After 72 h, the plates were aspirated and the cells washed with inositol-free DMEM (ICN). The wash media was replaced with 150 μL of 3H-inositol labeling media (inositol-free media containing 0.4% human albumin or 0.4% mouse albumin, 1× pen/strep antibiotics, glutamine, 25 mM HEPES to which was added 3H-myo-inositol NEN #NET114A 1 mCi/mL, 25 Ci/mmol diluted 1:150 in loading media with a final specific radioactivity of 1 μCi/150 μL). Alternatively, the human and mouse albumin can be added after the overnight labeling step before the addition of LiCl.
The assay was typically run the next day after 18 h labeling. On the day of the assay, 5 μL of 300 mM LiCl was added to all wells and incubated at 37 degrees for 20 min 0.75 μL of 200× compounds were added and incubated with the cells for 60 min at 37 degrees. The media was then aspirated off and the assay terminated with the addition of 60 μL 10 mM formic acid. The cells were lysed for 60 min at room temperature. 15-30 μL of lysate was mixed with 70 μL/1 mg YSi SPA beads (Amersham) in clear bottom Isoplates. The plates were shaken for 2 h at room temperature. Beads were allowed to settle and the plates were counted in the Wallac Microbeta.

In experiment [2] the target is T1, Human GPR40. Briefly: Inositol Phosphate Turnover (IP1) Assay 2. Also noted: expressed in transfected cells; host or cells: HEK cells stably expressing the aequorin reporter. As to conditions: HEK cells stably expressing human GPR40, 384-well, CisBio IP-One kit. How it is done:
The assay was performed in 384-well format. HEK cells stably expressing human GPR40 were plated at 15,000 cells per well in growth medium (DMEM/10% fetal calf serum). Cell plates were then incubated 16 hours at 37 degrees in a 5% CO2 incubator.
Measurement of Inositol Phosphate Turnover (IP1) was performed using the CisBio IP-One kit (Part number 62IPAPEB). After the 16 hour incubation, the cells were washed with HEPES buffer and 10 ul of stimulation buffer (prepared as described in the kit) was added to each well. In a separate plate, compounds were diluted in DMSO (400-fold over the final concentration in the assay well) and 25 nl was acoustically transferred to the appropriate well in the assay cell plate. The plates were then incubated for 60 minutes at 37 degrees. 10 ul of detection buffer (also prepared as described in the IP-One kit) was added to each well and the plates were incubated for 60 minutes in the dark. The plates were then read in a Perkin Elmer EnVision or equivalent reader able to measure FRET. Fluorescent ratio of emission at 665 and 620 nm was then converted to IP1 concentration by back calculating from an IP1 standard curve prepared at the time of the assay.

Experiment [3] has as its target T1, Human GPR40. Briefly: FLIPR assay (agonist-induced calcium mobilization). Also noted: expressed in transfected cells. As to conditions: GPR40/CHO NFAT BLA cells. How it is done: as §1
FLIPR (Fluorimetric Imaging Plate Reader, Molecular Devices) assays were performed to measure agonist-induced calcium mobilization of the stable clones. For the FLIPR assay, one day before assay, GPR40/CHO NFAT BLA cells were seeded into black-wall-clear-bottom 384-well plates (Costar) at 1.4×10e4 cells/20 μL medium/well. The cells were incubated with 20 μl/well of the assay buffer (HBSS, 0.1% BSA, 20 mM HEPES, 2.5 mM probenecid, pH 7.4) containing 8 μM fluo-4, AM, 0.08% pluronic acid at room temperature for 100 minutes. Fluorescence output was measured using FLIPR. Compounds were dissolved in DMSO and diluted to desired concentrations with assay buffer. 13.3 μL/well of compound solution was added.
On the technique in general: A change in cytosolic calcium serves as a functional read-out for many receptors and channels.

T1 sequence (O14842 whole entry): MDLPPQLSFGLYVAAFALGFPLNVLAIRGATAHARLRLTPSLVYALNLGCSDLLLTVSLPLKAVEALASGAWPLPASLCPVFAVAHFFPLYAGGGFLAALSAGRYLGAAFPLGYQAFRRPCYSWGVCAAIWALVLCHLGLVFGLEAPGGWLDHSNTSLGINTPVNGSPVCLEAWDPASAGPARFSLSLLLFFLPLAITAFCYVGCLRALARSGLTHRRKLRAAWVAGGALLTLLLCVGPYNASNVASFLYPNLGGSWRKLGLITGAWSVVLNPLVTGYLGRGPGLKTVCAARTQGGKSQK

For `Cc1cc(OCC[C@H](O)CO)cc(C)c1-c1cc(COc2cc3c(cn2)[C@H]2[C@@H](C3)[C@@H]2C(=O)O)c(F)cc1F` [Example 24, Sodium (5aR,6S,6aS)-3-((4′-((S)-3,4-dihydroxybutoxy)-4,6-difluoro-2′,6′-dimethyl-[1,1′-biphenyl]-3-yl)methoxy)-5,5a,6,6a-tetrahydrocyclopropa[4,5]cyclopenta[1,2-c]pyridine-6-carboxylate], the EC50 in experiment [1] was found to be 4.6 nM; in experiment [2], 1.3 nM.

`Cc1cc(OCC(C(C)(C)O)C(C)(C)O)cc(C)c1-c1cc(COc2cc3c(cn2)[C@H]2[C@@H](C3)[C@@H]2C(=O)O)c(F)cc1F` [Example 22, (5aR,6S,6aS)-3-((4,6-difluoro-4′-(3-hydroxy-2-(2-hydroxypropan-2-yl)-3-methylbutoxy)-2′,6′-dimethyl-[1,1′-biphenyl]-3-yl)methoxy)-5,5a,6,6a-tetrahydrocyclopropa[4,5]cyclopenta[1,2-c]pyridine-6-carboxylic acid] registered an EC50 in experiment [2] of 3.1 nM.

The molecule `Cc1cc(OCCC(C)(O)C(F)F)nc(C)c1-c1cc(COc2cc3c(cn2)C2[C@@H](C3)[C@@H]2C(=O)O)c(F)cc1F` (stereo in doubt) [Example 17, (5aR,6S,6aR)-3-((5-(6-(4,4-difluoro-3-hydroxy-3-methyl-butoxy)-2,4-di-methylpyridin-3-yl)-2,4-difluorobenzyl)oxy)-5,5a,6,6a-tetra-hydrocyclopropa[4,5] cyclopenta[1,2-c] pyridine-6-carboxylic acid] registered an EC50 in experiment [2] of 2.1 nM.

With `Cc1cc(OCC[C@@H](O)CO)cc(C)c1-c1cc(COc2cc3c(cn2)[C@H]2[C@@H](C3)[C@@H]2C(=O)O)c(F)cc1F` [Example 25, (5aR,6S,6aS)-3-((4′-((R)-3,4-dihydroxy-butoxy)-4,6-difluoro-2′,6′-dimethyl-[1,1′-biphenyl]-3-yl)methoxy)-5,5a,6,6a-tetrahydrocyclo-propa[4,5]cyclopenta [1,2-c]pyridine-6-carboxylic acid], the figures for the 50% effective concentration (EC50) in experiment [1] and in experiment [2] were 4.7 nM and 3.8 nM, respectively.

Molecule `Cc1nc(OCCC(C)(O)CO)ccc1-c1cc(COc2cc3c(cn2)[C@H]2[C@@H](C3)[C@@H]2C(=O)O)c(F)cc1C(F)(F)F` (stereo partly drawn) [Example 20, (5aR,6S,6aS)-3-((5-(6-(3,4-dihydroxy-3-methyl-butoxy)-2-methylpyridin-3-yl)-2-fluoro-4-(tri-fluoro-methyl)benzyl)-oxy)-5,5a,6,6a-tetra-hydro-cyclopropa[4,5]-cyclopenta[1,2-c]-pyridine-6-carboxylic acid] yielded a concentration for a half-maximal effect (EC50) in experiment [2] of 3.1 nM.

On to `C[C@@](O)(CO)CCOc1ccc(-c2cc(COc3cc4c(cn3)[C@H]3[C@@H](C4)[C@@H]3C(=O)O)c(F)cc2F)c(Cl)c1` [Example 21, (5aR,6S,6aS)-3-((2′-chloro-4′-((S)-3,4-dihydroxy-3-methyl-butoxy)-4,6-di-fluoro-[1,1′-biphenyl]-3-yl)methoxy)-5,5a,6,6a-tetrahydrocyclopropa [4,5]cyclopenta[1,2-c] pyridine-6-carboxylic acid], for which it took 2.2 nM to reach a half-maximal effect in experiment [2] (EC50).

In experiment [2], `Cc1cc(OCC[C@@H](O)CO)c(F)cc1-c1cc(COc2cc3c(cn2)[C@H]2[C@@H](C3)[C@@H]2C(=O)O)c(F)cc1Cl` [Example 26, (5aR,6S,6aS)-3-((6-chloro-4′-((R)-3,4-dihydroxybutoxy)-4,5,-difluoro-2′-methyl-[1,1′-biphenyl]-3-yl)methoxy)-5,5a,6,6a-tetrahydrocyclo-propa[4,5]cyclopenta [1,2-c]pyridine-6-carboxylic acid] yielded an EC50 of 0.7 nM.

With `Cc1cc(CCC(C)(O)CO)cc(C)c1-c1cc(COc2cc3c(cn2)[C@H]2[C@@H](C3)[C@@H]2C(=O)O)c(F)cc1F` (stereo partly drawn) [Example 23, (5aR,6S,6aS)-3-((4′-(3,4-dihydroxy-3-methylbutyl)-4,6-difluoro-2′,6′-dimethyl-[1,1′-biphenyl]-3-yl)methoxy)-5,5a,6,6a-tetrahydrocyclopropa[4,5]cyclopenta[1,2-c]pyridine-6-carboxylic acid], in experiment [2], the 50% effective concentration (EC50) was found to be 5.2 nM.

Regarding `Cc1cc(OCCC(C)(O)CO)cc(C)c1-c1cc(COc2cc3c(cn2)[C@H]2[C@@H](C3)[C@@H]2C(=O)O)c(F)cc1F` (stereo partly drawn) [Example 19, (5aR,6S,6aS)-3-((4′-(3,4-dihydroxy-3-methyl-butoxy)-4,6-difluoro-2′,6′-dimethyl-[1,1′-biphenyl]-3-yl)methoxy)-5,5a,6,6a-tetrahydro-cyclopropa[4,5]-cyclopenta[1,2-c] pyridine-6-carboxylic acid], in experiment [2], a half-maximal response (EC50) required 1.6 nM.

Take `O=C(O)[C@H]1[C@@H]2Cc3cc(OCc4cc(-c5c(F)cc(OCCC6(O)COC6)cc5F)c(C(F)(F)F)cc4F)ncc3[C@@H]21` [Example 9, (5aR,6S,6aS)-3-((2′,4,6′-trifluoro-4′-(2-(3-hydroxy-oxetan-3-yl)ethoxy)-6-(trifluoromethyl)-[1,1′-biphenyl]-3-yl)methoxy)-5,5a,6,6a-tetrahydrocyclopropa [4,5]cyclopenta[1,2-c]pyridine-6-carboxylic acid]: the EC50 in experiment [1] was found to be 11.1 nM; in experiment [3], 6.89 nM.
